According to patent US8063048B2, “Acetylenyl-pyrazolo-pyrimidine derivatives” (Hoffmann-La Roche Inc., priority 2005, dated 2011):

Structure (SMILES) | melting point [°C]
N#Cc1cc(-c2ccc(C(F)(F)F)cc2)cn2c(C#Cc3cnc(N)nc3)cnc12 [Example 227, 3-(2-Amino-pyrimidin-5-ylethynyl)-6-(4-trifluoromethyl-phenyl)-imidazo[1,2-a]pyridine-8-carbonitrile] | 290
COc1ncc(S(=O)(=O)NC(C)(CO)CO)cc1C#Cc1cnn2c(C(F)(F)F)cc(-c3ccc(C(F)(F)F)cc3)nc12 [Example 25, 6-Methoxy-5-[7-trifluoromethyl-5-(4-trifluoromethyl-phenyl)-pyrazolo[1,5-a]pyrimidin-3-ylethynyl]-pyridine-3-sulfonic acid (2-hydroxy-1-hydroxymethyl-1-methyl-ethyl)-amide] | 233 to 235
CNc1ccc(C#Cc2cnn3c(C(F)(F)F)cc(-c4ccc(C(F)(F)F)cc4)nc23)cn1 [Example 199, Methyl-{5-[7-trifluoromethyl-5-(4-trifluoromethyl-phenyl)-pyrazolo[1,5-a]pyrimidin-3-ylethynyl]-pyridin-2-yl}-amine] | 187
CN(C)CCNS(=O)(=O)c1cccc(C#Cc2cnn3c(C(F)(F)F)cc(-c4ccc(C(F)(F)F)cc4)nc23)c1 [Example 133, N-(2-Dimethylamino-ethyl)-3-[7-trifluoromethyl-5-(4-trifluoromethyl-phenyl)-pyrazolo[1,5-a]pyrimidin-3-ylethynyl]-benzenesulfonamide] | 146 to 147
CC(C)(C)NS(=O)(=O)c1cncc(C#Cc2cnn3c(C(F)(F)F)cc(-c4ccc(C(F)(F)F)cc4)nc23)c1 [Example 17, 5-[7-Trifluoromethyl-5-(4-trifluoromethyl-phenyl)-pyrazolo[1,5-a]pyrimidin-3-ylethynyl]-pyridine-3-sulfonic acid tert-butylamide] | 224
O=S(=O)(Nc1ccncc1)c1ccc(C#Cc2cnn3c(C(F)(F)F)cc(-c4ccc(C(F)(F)F)cc4)nc23)s1 [Example 280, 5-[7-Trifluoromethyl-5-(4-trifluoromethyl-phenyl)-pyrazolo[1,5-a]pyrimidin-3-ylethynyl]-thiophene-2-sulfonic acid pyridin-4-ylamide] | 209
CC(C)(C)NS(=O)(=O)c1ccc(C#Cc2cnn3c(C(F)(F)F)cc(-c4cccc(C(F)(F)F)c4)nc23)s1 [Example 117, 5-[7-Trifluoromethyl-5-(3-trifluoromethyl-phenyl)-pyrazolo[1,5-a]pyrimidin-3-ylethynyl]-thiophene-2-sulfonic acid tert-butylamide] | 168
CC(CO)(CO)NS(=O)(=O)c1cncc(C#Cc2cnn3c(C(F)(F)F)cc(-c4ccc(C(F)(F)F)cc4)nc23)c1 [Example 14, 5-[7-Trifluoromethyl-5-(4-trifluoromethyl-phenyl)-pyrazolo[1,5-a]pyrimidin-3-ylethynyl]-pyridine-3-sulfonic acid (2-hydroxy-1-hydroxymethyl-1-methyl-ethyl)-amide] | 228 to 231
CC(=O)N(C(C)=O)c1ncc(C#Cc2cnn3c(C(F)(F)F)cc(-c4ccc(C(F)(F)F)cc4)nc23)cn1 [Example 244, N-Acetyl-N-{5-[7-trifluoromethyl-5-(4-trifluoromethyl-phenyl)-pyrazolo[1,5-a]pyrimidin-3-ylethynyl]-pyrimidin-2-yl}-acetamide] | 253 to 254
Cc1cc(-c2ccc(Cl)cc2)cn2c(C#Cc3cnc(N)nc3)cnc12 [Example 221, 5-[6-(4-Chloro-phenyl)-8-methyl-imidazo[1,2-a]pyridin-3-ylethynyl]-pyrimidin-2-ylamine] | 263
NC(=O)c1ccc(C#Cc2cnn3c(C(F)F)cc(-c4ccc(C(F)(F)F)cc4)nc23)cn1 [Example 206, 5-[7-Difluoromethyl-5-(4-trifluoromethyl-phenyl)-pyrazolo[1,5-a]pyrimidin-3-ylethynyl]-pyridine-2-carboxylic acid amide] | 276 to 277
